Tests used:
CCR5 = test: Selectivity index, ratio of CC50 for human TZM-bl cells to EC50 for CCR5 in human TZM-bl cells infected with CCR5-tropic HIV-1 Bal assessed as inhibition of viral entry; type: toxicity, cell-based; settings: read-out: Ratio CC50/EC50
[1] = Binding affinity to HIV1 integrase by surface plasma resonance method; design: species or system Human immunodeficiency virus
TZM = test: Cytotoxicity against human TZM-bl cells after 3 days by XTT assay; type: cell-based; settings: 72 h

SMILES | selectivity ratio (CCR5) | Kd [1] | Activity (TZM)
O=C(CCc1ccc(NC(=O)Cc2cccs2)cc1)CCc1ccc(O)c(O)c1 | 8 | – | –
O=C(CCc1ccc(NC(=O)C2CCCCC2)cc1)CCc1ccc(O)c(O)c1 | 10 | 80.9 µM | –
CC(=O)Oc1ccc(/C=C/C(=O)CCc2ccc(NC(=O)Cc3cccs3)cc2)cc1OC(C)=O | < 1 | – | –
CC(=O)Oc1ccc(/C=C/C(=O)CCc2ccc(NC(=O)C3CCCCC3)cc2)cc1OC(C)=O | 5 | – | –
O=C(/C=C/c1ccc(O)c(O)c1)CCc1ccc(NC(=O)c2ccccc2)cc1 | < 1 | 164 µM | –
Cc1nnc(C(C)C)n1[C@@H]1C[C@H]2CC[C@@H](C1)N2CC[C@H](NC(=O)C1CCC(F)(F)CC1)c1ccccc1 [MARAVIROC] | > 1e+06 | – | –
CC(=O)Oc1ccc(CCC(=O)CCc2ccc(NC(=O)c3ccc([N+](=O)[O-])cc3)cc2)cc1OC(C)=O | 15 | – | –
COc1ccc(C(=O)Nc2ccc(CCC(=O)CCc3ccc(OC(C)=O)c(OC(C)=O)c3)cc2)cc1 | 21 | – | –
CC(=O)Oc1ccc(/C=C/C(=O)CCc2ccc(NC(=O)c3ccc(C)cc3)cc2)cc1OC(C)=O | 2 | – | –
CC(=O)Oc1ccc(CCC(=O)CCc2ccc(NC(=O)c3ccc(C)cc3)cc2)cc1OC(C)=O | 9 | – | –
O=C(/C=C/c1ccc(O)c(O)c1)CCc1ccc(NC(=O)C2CCCCC2)cc1 | < 3 | 89.8 µM | –
COc1ccc(C(=O)Nc2ccc(CCC(=O)/C=C/c3ccc(O)c(O)c3)cc2)cc1 | 7 | 43.2 µM | –
Cc1ccc(C(=O)Nc2ccc(CCC(=O)/C=C/c3ccc(O)c(O)c3)cc2)cc1 | < 1 | – | –
COc1ccc(C(=O)Nc2ccc(CCC(=O)/C=C/c3ccc(OC(C)=O)c(OC(C)=O)c3)cc2)cc1 | 12 | – | –
O=C(/C=C/c1ccc(O)c(O)c1)CCc1ccc(NC(=O)c2ccc([N+](=O)[O-])cc2)cc1 | < 1 | – | –
CC(=O)Oc1ccc(CCC(=O)CCc2ccc(NC(=O)Cc3cccs3)cc2)cc1OC(C)=O | 17 | – | –
CC(=O)Oc1ccc(/C=C/C(=O)CCc2ccc(NC(=O)c3ccc([N+](=O)[O-])cc3)cc2)cc1OC(C)=O | 5 | – | –
O=C(CCc1ccc(NC(=O)c2ccccc2)cc1)CCc1ccc(O)c(O)c1 | 26 | 110 µM | –
COc1ccc(C(=O)Nc2ccc(CCC(=O)CCc3ccc(O)c(O)c3)cc2)cc1 | < 5 | – | –
CC(=O)Oc1ccc(/C=C/C(=O)CCc2ccc(NC(=O)c3ccccc3)cc2)cc1OC(C)=O | < 5 | – | –
O=C(/C=C/c1ccc(O)c(O)c1)CCc1ccc(NC(=O)Cc2cccs2)cc1 | < 2 | 61.3 µM | –
O=C(CCc1ccc(NC(=O)c2ccc([N+](=O)[O-])cc2)cc1)CCc1ccc(O)c(O)c1 | 6 | – | –
CC(=O)Oc1ccc(CCC(=O)CCc2ccc(NC(=O)C3CCCCC3)cc2)cc1OC(C)=O | 14 | – | –
Cc1ccc(C(=O)Nc2ccc(CCC(=O)CCc3ccc(O)c(O)c3)cc2)cc1 | 5 | – | –
CC(=O)Oc1ccc(CCC(=O)CCc2ccc(NC(=O)c3ccccc3)cc2)cc1OC(C)=O | 110 | 2.4 µM | Non-Toxic
